Measured values: patent US20090068146A1, “DIARYL UREAS AND COMBINATIONS” (priority 2005, published 2009)

| melting point | Structure (SMILES) |
| --- | --- |
| 183 to 184 °C | CCNC(=O)c1cc(Oc2ccc(NC(=O)Nc3ccc(Br)c(C(F)(F)F)c3)cc2)ccn1 [Entry 88, N-[4-bromo-3-(trifluoromethyl)phenyl]({4-[2-(N-ethylcarbamoyl)(4-pyridyloxy)]phenyl}amino)carboxamide] |
| 147 to 151 °C | CNC(=O)c1cc(Oc2ccc(NC(=O)Nc3ccc(Cl)c(C(F)(F)F)c3)c(Cl)c2)ccn1 [Entry 49, {4-[3-chloro-4-({[4-chloro-3-(trifluoromethyl)phenyl]amino}carbonylamino)phenoxy](2-pyridyl)}-N-methylcarboxamide] |
| 217 to 219 °C | CNC(=O)c1cc(Oc2ccc(NC(=O)Nc3ccc(Br)c(C(F)(F)F)c3)cc2Cl)ccn1 [Entry 87, {4-[4-({[4-bromo-3-(trifluoromethyl)phenyl]amino}carbonylamino)-2-chlorophenoxy](2-pyridyl)}-N-methylcarboxamide] |
| 114 to 117 °C | COc1ccc(C(F)(F)F)cc1NC(=O)Nc1ccc(Oc2ccnc(C(N)=O)c2)cc1 [Entry 14, 4-[4-({N-[2-methoxy-5-(trifluoromethyl)phenyl]carbamoyl}amino)phenoxy]pyridine-2-carboxamide] |
| 180 to 181 °C | CCNC(=O)c1cc(Oc2ccc(NC(=O)Nc3cc(C(F)(F)F)c(Cl)cc3OC)cc2)ccn1 [Entry 99, N-[4-chloro-2-methoxy-5-(trifluoromethyl)phenyl]({4-[2-(N-ethylcarbamoyl)(4-pyridyloxy)]phenyl}amino)carboxamide] |
| 140 to 144 °C | CNC(=O)c1cc(Oc2ccc(NC(=O)Nc3cc(C(F)(F)F)c(Cl)cc3OC)cc2)ccn1 [Entry 95, N-[4-chloro-2-methoxy-5-(trifluoromethyl)phenyl]({4-[2-(N-methylcarbamoyl)(4-pyridyloxy)]phenyl}amino)carboxamide] |
| 214 to 216 °C | CNC(=O)c1cc(Oc2ccc(NC(=O)Nc3cc(C(F)(F)F)ccc3OC)cc2Cl)ccn1 [Entry 20, ({3-chloro-4-[2-(N-methylcarbamoyl)(4-pyridyloxy)]phenyl}amino)-N-[2-methoxy-5-(trifluoromethyl)phenyl]carboxamide] |
| 210 to 213 °C | CNC(=O)c1cc(Oc2ccc(NC(=O)Nc3cc(C(F)(F)F)ccc3OC)c(C)c2)ccn1 [Entry 16, {4-[4-({N-[2-methoxy-5-(trifluoromethyl)phenyl]carbamoyl}amino)-3-methylphenoxy](2-pyridyl)}-N-methylcarboxamide] |
| 244 to 245 °C | CNC(=O)c1cc(Oc2ccc(NC(=O)Nc3cc(C(F)(F)F)c(Cl)cc3OC)c(Cl)c2)ccn1 [Entry 96, N-[4-chloro-2-methoxy-5-(trifluoromethyl)phenyl]({2-chloro-4-[2-(N-methylcarbamoyl)(4-pyridyloxy)]phenyl}amino)carboxamide] |
| 194 to 196 °C | CCNC(=O)c1cc(Oc2ccc(NC(=O)Nc3cc(C(F)(F)F)ccc3OC)cc2)ccn1 [Entry 19, ({4-[2-(N-ethylcarbamoyl)(4-pyridyloxy)]phenyl}amino)-N-[2-methoxy-5-(trifluoromethyl)phenyl]carboxamide] |
| 218 to 219 °C | CNC(=O)c1cc(Sc2ccc(NC(=O)Nc3cc(C(F)(F)F)ccc3OC)cc2)ccn1 [Entry 27, N-[2-methoxy-5-(trifluoromethyl)phenyl]({4-[2-(N-methylcarbamoyl)(4-pyridylthio)]phenyl}amino)carboxamide] |
| 187 to 188 °C | CNC(=O)c1cc(Oc2ccc(NC(=O)Nc3cc(C(F)(F)F)ccc3OC)c(Cl)c2)ccn1 [Entry 17, ({2-chloro-4-[2-(N-methylcarbamoyl)(4-pyridyloxy)]phenyl}amino)-N-[2-methoxy-5-(trifluoromethyl)phenyl]carboxamide] |
| 187 to 189 °C | CCNC(=O)c1cc(Oc2ccc(NC(=O)Nc3ccc(Cl)c(C(F)(F)F)c3)cc2)ccn1 [Entry 51, N-[4-chloro-3-(trifluoromethyl)phenyl]({4-[2-(N-ethylcarbamoyl)(4-pyridyloxy)]phenyl}amino)carboxamide] |
| 220 to 221 °C | CNC(=O)c1cc(Oc2ccc(NC(=O)Nc3cc(C(F)(F)F)c(Cl)cc3OC)cc2Cl)ccn1 [Entry 97, N-[4-chloro-2-methoxy-5-(trifluoromethyl)phenyl]({3-chloro-4-[2-(N-methylcarbamoyl)(4-pyridyloxy)]phenyl}amino)carboxamide] |
